Measured values published in patent US7947726B2, “Non-steroidal ligands for the glucocorticoid receptor, and compositions thereof” (The Regents of the University of California, priority 2002, dated 2011).

What was measured:
AR = target: T1, AR (Homo sapiens, UniProt P10275); experiment: AR activation (max fold activation); assay type: cell-based; conditions: Table 4
T1 sequence (P10275 1-920): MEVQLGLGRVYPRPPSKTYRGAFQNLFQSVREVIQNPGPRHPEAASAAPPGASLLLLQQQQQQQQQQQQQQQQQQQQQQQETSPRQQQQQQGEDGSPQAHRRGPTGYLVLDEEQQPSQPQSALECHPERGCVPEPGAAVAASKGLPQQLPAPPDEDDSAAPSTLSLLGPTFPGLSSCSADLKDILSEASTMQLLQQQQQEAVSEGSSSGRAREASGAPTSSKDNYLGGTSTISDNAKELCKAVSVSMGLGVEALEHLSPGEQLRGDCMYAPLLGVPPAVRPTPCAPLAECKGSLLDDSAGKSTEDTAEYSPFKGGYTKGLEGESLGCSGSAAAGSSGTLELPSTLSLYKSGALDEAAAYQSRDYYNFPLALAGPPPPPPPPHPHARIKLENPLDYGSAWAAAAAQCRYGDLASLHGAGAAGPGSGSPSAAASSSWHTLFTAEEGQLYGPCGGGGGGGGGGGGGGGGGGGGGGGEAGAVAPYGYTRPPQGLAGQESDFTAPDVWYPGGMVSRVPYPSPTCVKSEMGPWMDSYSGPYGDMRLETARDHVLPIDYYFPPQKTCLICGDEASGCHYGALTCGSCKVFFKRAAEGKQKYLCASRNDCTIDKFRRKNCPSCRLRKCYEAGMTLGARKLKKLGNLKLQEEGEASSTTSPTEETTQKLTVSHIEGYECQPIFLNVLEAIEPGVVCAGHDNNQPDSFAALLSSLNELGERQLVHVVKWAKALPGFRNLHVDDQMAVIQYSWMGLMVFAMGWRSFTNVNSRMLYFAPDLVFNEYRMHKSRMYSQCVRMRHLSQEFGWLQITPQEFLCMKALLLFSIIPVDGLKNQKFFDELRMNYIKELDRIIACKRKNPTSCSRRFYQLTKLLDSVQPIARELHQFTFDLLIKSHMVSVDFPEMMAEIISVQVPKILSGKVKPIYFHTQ

NF-κB = NF-κB repression luciferase assay in A549 cells; assay type: cell-based, human; conditions: Table 5, TNF-α-stimulated A549 cells
Text: Plasmids for GR (human, pSG5 backbone), AP1-Luc (synthetic AP1 response element upstream of a firefly luciferase gene), TAT3-Luc (three copies of the tyrosine aminotransferase glucocorticoid response element upstream of a firefly luciferase gene), β-galactosidase (used as a transfection control), as well as two stable transfected cells lines: an A549 (human, lung carcinoma) cell line stably transfected with a κB response element upstream of a firefly luciferase gene, (R. M. Nissen et al., Genes Dev., 14(18):2314-29, (2000)) and a U2OS (human, osteosarcoma) stably transfected with rat GR (I. Rogatsky, et al., Mol. Cell. Biol., 1997, 17, 3181-3193) were a gift of Professor Keith Yamamoto (Department of Biochemistry, University of California, San Francisco).
For NF-κB repression assays, A549 cells stably transfected with a luciferase reporter were grown under the same conditions as CV-1 cells. 50,000 cells/well were plated into 96 well plates and incubated for 12 h at 37° C. Either TNF-α alone or mixed with various hormone dilutions in media were then added to the cells, which were then incubated for 8 hours. Procedures for lysis and luciferase assay were performed as previously described. Protein content was used as a control in this case and the recommended procedures using the BCA Protein Assay Kit (Roche) were followed.

Cc1cc(O)cc(C)c1C(O)C1CCCC2=Cc3c(cnn3-c3ccc(F)cc3)CC21C (stereo not drawn) [Compound 227, 4-{[1-(4-Fluoro-phenyl)-4a-methyl-4,4a,5,6,7,8-hexahydro-1H-benzo[f]indazol-5-yl]-hydroxy-methyl}-3,5-dimethyl-phenol]
AR max fold activation (AR): 4.6 ± 1.6

CC12Cc3cnn(-c4ccc(F)cc4)c3C=C1CCCC2C(O)c1cccc2[nH]ccc12 (stereo not drawn) [Compound 237, [1-(4-Fluoro-phenyl)-4a-methyl-4,4a,5,6,7,8-hexahydro-1H-benzo[f]indazol-5-yl]-(1H-indol-4-yl)-methanol]
EC50 (NF-κB; Homo sapiens, read-out: Repression NF-KB pot (EC50)): 0.0264 µM
Repression NF-KB % max repression (NF-κB): 74%
